Test results published in patent US20050208496A1, “Methods of testing for bronchial asthma or chronic obstructive pulmonary disease” (Genox Research, Inc., priority 2002, published 2005).

Test system: respiratory epithelial cells

IL-13: human IL-13 (Peprotech, Inc.) added to the medium at 50 ng/mL to stimulate respiratory epithelial cells
TGM2 (38404_at) expression fold change upon IL-13 stimulation (lot 1, Day 7, AI method): 2.8 fold | TSPAN-3 (38612_at) expression, fold change upon IL-13 stimulation (lot 1, Day 7, AI method): 2.7 fold | TXNRD1 (39425_at) expression fold change upon IL-13 stimulation (lot 1, Day 7, AI method): 2.5 fold | UBE2L6 (40505_at) expression fold change upon IL-13 stimulation (lot 1, Day 7, AI method): 5.1 fold | UFD1L (811_at) expression, fold change upon IL-13 stimulation (lot 1, Day 7, AI method): 5.1 fold | W06879 (57696_at) expression fold change (lot 1, Day 7, AI method): 2.1 fold | ZNF263 (33288_i_at) expression fold change (lot 1, Day 7, AI method): 2.6 fold | diubiquitin (39959_at) expression, fold change upon IL-13 stimulation (lot 1, Day 7, AI method): 4.3 fold | AA053401 (56234_r_at) expression change (lot 1, Day 7, IMM): −5.7 | AA059458 (65626_at) expression change (lot 1, Day 7, IMM): −3.1 | AA456099 (59567_at) expression change (lot 1, Day 7, IMM): −2.3 | AF052107 38262_at expression change (lot 1, Day 7, IMM): −4.5 | AI050855 (64285_at) expression change (lot 1, Day 7, IMM): −3.7 | AI432375 (49819_at) expression change (lot 1, Day 7, IMM): −6.3 | AI770116 (70124_at) expression change (lot 1, Day 7, IMM): −2.1 | AI798733 (64163_at) expression change (lot 1, Day 7, IMM): −2.3 | AI829641 (84270_at) expression change (lot 1, Day 7, IMM): 11.7 | AI948584 48086_at expression change (lot 1, Day 7, IMM): −6.2 | AQP5 32909_at expression change (lot 1, Day 7, IMM): −2.5 | ARHGEF4 36524_at expression change (lot 1, Day 7, IMM): −2.2 | BARX2 35425_at expression change (lot 1, Day 7, IMM): −2.7 | CBLB 514_at expression change (lot 1, Day 7, IMM): −2.4 | CBLB 35632_at expression change (lot 1, Day 7, IMM): −2 | CRABP-II 1057_at expression change (lot 1, Day 7, IMM): −2.7 | DKFZp434K1210 44682_at expression change (lot 1, Day 7, IMM): −2.1 | DSC3 (79615_at) expression change (lot 1, Day 7, IMM): −4 | DSC3a, b 47119_at expression change (lot 1, Day 7, IMM): −3.4 | DSC3a, b 79615_at expression change (lot 1, Day 7, IMM): −4 | EIF4EBP1 (54152_at) expression change (lot 1, Day 7, IMM): −7.3 | FLJ10718 52072_at expression change (lot 1, Day 7, IMM): −8 | FLJ20373 54030_at expression change (lot 1, Day 7, IMM): −2.1 | FLJ23516 47534_at expression change (lot 1, Day 7, IMM): −5.4 | GJA1 32531_at expression change (lot 1, Day 7, IMM): −5.5 | HEY1 44783_s_at expression change (lot 1, Day 7, IMM): −3.4 | HIN-1 (46200_at) expression change (lot 1, Day 7, IMM): −4 | ID1 36619_r_at expression change (lot 1, Day 7, IMM): −3.9 | IL20RA 42969_at expression change (lot 1, Day 7, IMM): −2.9 | IVL 36355_at expression change (lot 1, Day 7, IMM): −4.5 | K1IAA1102 (64345_s_at) expression change (lot 1, Day 7, IMM): −5.6 | KCNMA1 (53796_at) expression change (lot 1, Day 7, IMM): −3 | KIAA0878 (48793_at) expression change (lot 1, Day 7, IMM): −2.4 | KLF7 34216_at expression change (lot 1, Day 7, IMM): −6.3 | KLF7 (42769_at) expression change (lot 1, Day 7, IMM): −3.7 | KRT6B (62998_at) expression change (lot 1, Day 7, IMM): −2.5 | KRT15 37582_at expression change (lot 1, Day 7, IMM): −2 | LOC51297 (49616_at) expression change (lot 1, Day 7, IMM): −3.9 | LOC51297 (55440_at) expression change (lot 1, Day 7, IMM): −3.7 | LOC51297 (55442_g_at) expression change (lot 1, Day 7, IMM): −12.8 | LOC129642 (42065_at) expression change (lot 1, Day 7, IMM): −4.3 | LOC129642 (58288_at) expression change (lot 1, Day 7, IMM): −3.9 | MGC14128 55924_at expression change (lot 1, Day 7, IMM): −2.7 | MGC14128 (51669_r_at) expression change (lot 1, Day 7, IMM): −2.1 | MGC16207 (65876_at) expression change (lot 1, Day 7, IMM): −2.3 | N71183 52473_at expression change (lot 1, Day 7, IMM): −2.1 | PR01489 57777_at expression change (lot 1, Day 7, IMM): −10.9 | RAC2 32737_at expression change (lot 1, Day 7, IMM): −3.2 | SEMA4B (46709_at) expression change (lot 1, Day 7, IMM): −2.2 | SERPINA3 (75248_at) expression change (lot 1, Day 7, IMM): −16.3 | SPRR1B 37160_at expression change (lot 1, Day 7, IMM): −2.4 | T52027 (63150_at) expression change (lot 1, Day 7, IMM): 2.5 | TCF8 33439_at expression change (lot 1, Day 7, IMM): −2.4 | TGFBI (68339_at) expression change (lot 1, Day 7, IMM): −3.2 | TNNT1 36113_s_at expression change (lot 1, Day 7, IMM): −4.9 | TNRC3 41246_at expression change (lot 1, Day 7, IMM): −2.4 | TPM1 36790_at expression change (lot 1, Day 7, IMM): −5.5 | TPM1 36791_g_at expression change (lot 1, Day 7, IMM): −7.5 | TPM1 36792_at expression change (lot 1, Day 7, IMM): −5.7 | UGB 39220_at expression change (lot 1, Day 7, IMM): −8.2 | VIM 34091_s_at expression change (lot 1, Day 7, IMM): −6.6 | W55956 46700_at expression change (lot 1, Day 7, IMM): −2.4 | W72331 49486 at expression change (lot 1, Day 7, IMM): −4.8 | ADAM8 (40712_at) expression, fold change upon IL-13 stimulation (lot 1, Day 7, IMM method): 2.8 fold | ADAM28 (35479_at) expression, fold change upon IL-13 stimulation (lot 1, Day 7, IMM method): 6.4 fold | AI659927 (54033_at) expression fold change (lot 1, Day 7, IMM method): 11 fold | AI718385 (53061_at) expression fold change (lot 1, Day 7, IMM method): 3.2 fold | AI809925 (53010_at) expression fold change (lot 1, Day 7, IMM method): 2.8 fold | AI989346 (52327_s_at) expression fold change (lot 1, Day 7, IMM method): 2.1 fold | AKAP2 (35985_at) expression, fold change upon IL-13 stimulation (lot 1, Day 7, IMM method): 2.2 fold | ALOX15 (34636_at) expression, fold change upon IL-13 stimulation (lot 1, Day 7, IMM method): 118.8 fold | AW019985 (48826_s_at) expression fold change (lot 1, Day 7, IMM method): 10.8 fold | BRCA1 (626_s_at) expression fold change (lot 1, Day 7, IMM method): 2.4 fold | BST2 (39061_at) expression, fold change upon IL-13 stimulation (lot 1, Day 7, IMM method): 5.4 fold | C21orf11 (58957_at) expression fold change (lot 1, Day 7, IMM method): 6 fold | CCND3 (1794_at) expression fold change upon IL-13 stimulation (lot 1, Day 7, IMM method): 2.3 fold | CDH6 (1620_at) expression fold change upon IL-13 stimulation (lot 1, Day 7, IMM method): 4.2 fold | CDH6 (57421_at) expression fold change (lot 1, Day 7, IMM method): 4.5 fold | CDH26 (46916_at) expression fold change (lot 1, Day 7, IMM method): 9.3 fold | CH25H (32363_at) expression, fold change upon IL-13 stimulation (lot 1, Day 7, IMM method): 11.4 fold | CLDN4 (35276_at) expression, fold change upon IL-13 stimulation (lot 1, Day 7, IMM method): 2.1 fold | CLDN5 (38995_at) expression, fold change upon IL-13 stimulation (lot 1, Day 7, IMM method): 3.9 fold | CTSC (133_at) expression, fold change upon IL-13 stimulation (lot 1, Day 7, IMM method): 5.6 fold | CXCL16 (44095_at) expression fold change (lot 1, Day 7, IMM method): 2.6 fold | DD96 (31610_at) expression, fold change upon IL-13 stimulation (lot 1, Day 7, IMM method): 9.5 fold | DKFZP564O0823 (41402_at) expression, fold change upon IL-13 stimulation (lot 1, Day 7, IMM method): 9.6 fold | DKFZP566J091 (57197_at) expression fold change (lot 1, Day 7, IMM method): 4.2 fold | DKFZp564N1116 (37784_at) expression, fold change upon IL-13 stimulation (lot 1, Day 7, IMM method): 6 fold | DPP4 (34823_at) expression fold change upon IL-13 stimulation (lot 1, Day 7, IMM method): 3.9 fold | DPYD (38220_at) expression fold change upon IL-13 stimulation (lot 1, Day 7, IMM method): 6.9 fold | EMILIN-2 (51628_at) expression fold change (lot 1, Day 7, IMM method): 5 fold | FETUB (32620_at) expression fold change (lot 1, Day 7, IMM method): 7.4 fold | FETUB (33101_g_at) expression fold change (lot 1, Day 7, IMM method): 7.7 fold | FLJ10261 (43366_at) expression fold change (lot 1, Day 7, IMM method): 8.4 fold | FLJ22693 (53777_at) expression fold change (lot 1, Day 7, IMM method): 2.2 fold | GADD45G (39154_at) expression fold change upon IL-13 stimulation (lot 1, Day 7, IMM method): 3.1 fold | HAS3 (54604_at) expression fold change (lot 1, Day 7, IMM method): 2.2 fold | HLA-F (37420_i_at) expression, fold change upon IL-13 stimulation (lot 1, Day 7, IMM method): 2.4 fold
